In BindingDB's records for doi:10.1016/j.chembiol.2011.01.012 (University of Luxembourg, 2011) one finds IC50 data, which are given here for one compound.

The term IC50 denotes the midpoint of a concentration-inhibition curve. Read a low IC50 as inhibition by little substance.

The structures appear in SMILES notation.

Assay [1] addresses Non-receptor tyrosine-protein kinase TYK2 (Homo sapiens, UniProt P29597). Kind of assay: Enzyme Assay. Conditions: pH 7.5; 30 °C.
Assay [2] addresses Tyrosine-protein kinase JAK1 (Homo sapiens, UniProt P23458). Kind of assay: Enzyme Assay. The following applies: pH 7.5; 30 °C.

Non-receptor tyrosine-protein kinase TYK2, sequence (P29597 whole entry): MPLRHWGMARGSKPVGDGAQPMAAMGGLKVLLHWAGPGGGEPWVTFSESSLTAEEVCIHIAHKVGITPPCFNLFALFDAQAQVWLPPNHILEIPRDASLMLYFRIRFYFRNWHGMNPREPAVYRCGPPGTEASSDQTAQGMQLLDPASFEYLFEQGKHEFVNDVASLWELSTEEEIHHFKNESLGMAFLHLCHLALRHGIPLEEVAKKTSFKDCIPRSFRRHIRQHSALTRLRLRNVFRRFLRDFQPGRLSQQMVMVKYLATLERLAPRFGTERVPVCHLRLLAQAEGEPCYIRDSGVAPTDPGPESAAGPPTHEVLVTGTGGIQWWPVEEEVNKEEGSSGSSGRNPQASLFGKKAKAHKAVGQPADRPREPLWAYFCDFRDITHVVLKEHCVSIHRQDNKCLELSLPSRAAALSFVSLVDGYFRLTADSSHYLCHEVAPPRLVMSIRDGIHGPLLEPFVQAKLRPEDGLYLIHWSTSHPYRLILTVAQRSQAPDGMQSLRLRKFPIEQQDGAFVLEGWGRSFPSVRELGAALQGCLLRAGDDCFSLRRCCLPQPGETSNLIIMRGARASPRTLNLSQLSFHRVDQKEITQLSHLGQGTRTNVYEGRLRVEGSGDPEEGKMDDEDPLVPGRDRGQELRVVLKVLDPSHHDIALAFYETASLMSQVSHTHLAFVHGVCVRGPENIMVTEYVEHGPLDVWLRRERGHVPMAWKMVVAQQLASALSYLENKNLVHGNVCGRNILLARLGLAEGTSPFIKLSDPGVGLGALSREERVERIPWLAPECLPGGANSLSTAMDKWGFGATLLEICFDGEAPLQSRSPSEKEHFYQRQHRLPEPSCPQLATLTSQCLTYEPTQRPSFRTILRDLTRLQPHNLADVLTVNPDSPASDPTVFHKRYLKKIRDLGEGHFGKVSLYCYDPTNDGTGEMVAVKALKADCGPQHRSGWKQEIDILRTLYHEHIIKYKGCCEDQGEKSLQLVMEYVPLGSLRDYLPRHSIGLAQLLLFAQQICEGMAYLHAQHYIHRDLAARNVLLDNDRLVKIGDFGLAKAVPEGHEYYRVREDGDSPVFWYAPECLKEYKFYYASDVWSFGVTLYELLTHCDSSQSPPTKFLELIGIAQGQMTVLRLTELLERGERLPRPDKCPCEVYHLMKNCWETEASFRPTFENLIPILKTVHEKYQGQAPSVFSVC
Tyrosine-protein kinase JAK1, sequence (P23458 whole entry): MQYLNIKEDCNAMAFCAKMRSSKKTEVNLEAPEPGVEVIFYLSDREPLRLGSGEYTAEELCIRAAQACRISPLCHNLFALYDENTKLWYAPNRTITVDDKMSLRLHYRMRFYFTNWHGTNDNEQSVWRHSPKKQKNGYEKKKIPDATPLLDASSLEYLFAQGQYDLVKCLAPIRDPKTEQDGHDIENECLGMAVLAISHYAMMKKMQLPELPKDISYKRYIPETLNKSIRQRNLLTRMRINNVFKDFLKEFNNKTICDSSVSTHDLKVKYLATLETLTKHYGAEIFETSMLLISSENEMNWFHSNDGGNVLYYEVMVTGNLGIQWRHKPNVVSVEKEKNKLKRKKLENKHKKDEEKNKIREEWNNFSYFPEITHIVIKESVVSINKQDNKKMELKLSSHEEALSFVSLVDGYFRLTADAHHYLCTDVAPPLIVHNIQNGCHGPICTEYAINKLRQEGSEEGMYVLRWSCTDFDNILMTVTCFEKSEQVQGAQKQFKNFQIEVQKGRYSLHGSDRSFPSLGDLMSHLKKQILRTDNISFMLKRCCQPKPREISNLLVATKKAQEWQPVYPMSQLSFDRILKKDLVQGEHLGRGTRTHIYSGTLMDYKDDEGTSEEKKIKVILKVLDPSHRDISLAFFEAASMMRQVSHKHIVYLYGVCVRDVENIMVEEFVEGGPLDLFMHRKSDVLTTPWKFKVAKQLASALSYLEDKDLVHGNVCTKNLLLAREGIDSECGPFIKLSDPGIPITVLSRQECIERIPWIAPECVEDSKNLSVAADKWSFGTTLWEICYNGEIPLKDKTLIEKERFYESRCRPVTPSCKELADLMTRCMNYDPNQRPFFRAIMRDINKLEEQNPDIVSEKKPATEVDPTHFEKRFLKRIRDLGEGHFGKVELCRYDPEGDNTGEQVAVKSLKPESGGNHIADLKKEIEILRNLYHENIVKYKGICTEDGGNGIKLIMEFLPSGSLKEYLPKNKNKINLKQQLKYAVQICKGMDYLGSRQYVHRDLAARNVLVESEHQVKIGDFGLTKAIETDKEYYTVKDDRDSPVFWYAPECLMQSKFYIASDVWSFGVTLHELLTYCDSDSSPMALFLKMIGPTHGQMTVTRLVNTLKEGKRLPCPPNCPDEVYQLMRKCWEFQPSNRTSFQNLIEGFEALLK

With `CC(C)(O)C(=O)N1CCN(c2ccc(C(F)(F)F)c(C3=C(c4c[nH]c5ccccc45)C(=O)NC3=O)c2)CC1` [NIBR3049], the values for the IC50 in assay [1] and in assay [2] were 8.05 µM and 1.02 µM, respectively.
